Test results from patent publication US7638547B2, “Cis-alkoxy-substituted spirocyclic 1H-pyrrolidine-2,4-dione derivatives serving as pesticides” (Bayer CropScience AG, priority 2002, dated 2009).

Columns and labels:
[1] = tested on: cotton aphid (Aphis gossypii); experiment: Aphis gossypii Test (Example A); type: in vivo; conditions: 20 ppm active compound, cotton leaves dipped
From the text: (§1) Solvent: 7 parts by weight of dimethylformamide

[2] = tested on: larvae of the mustard beetle (Phaedon cochleariae); experiment: Phaedon Larvae Test (Example C); conditions: cabbage leaves dipped
[3] = tested on: caterpillars of the armyworm (Spodoptera frugiperda); experiment: Spodoptera frugiperda Test (Example H); type: in vivo; conditions: 100 ppm active compound, cabbage leaves dipped
From the text: as §1

[4] = tested on: larvae of the mustard beetle (Phaedon cochleariae); experiment: Phaedon Larvae Test (Example G); conditions: 100 ppm active compound, cabbage leaves dipped
[5] = tested on: caterpillars of the diamondback moth (Plutella xylostella/resistant strain); experiment: Plutella Test, resistant strain (Example D); type: in vivo; conditions: 4 ppm active compound, cabbage leaves dipped
From the text: as §1

[6] = tested on: Heliothis virescens caterpillars; experiment: Heliothis virescens Test (Example B); type: in vivo; conditions: 500 ppm active compound, soybean shoots dipped
From the text: as §1

[7] = tested on: greenhouse red spider mite (Tetranychus urticae); experiment: Tetranychus Test, OP-resistant/spray treatment (Example I); type: in vivo; conditions: 100 ppm active compound, bean leaf discs sprayed, OP-resistant
Procedure: Solvents: 78 parts by weight of acetone
• 1.5 parts by weight of dimethylformamide Emulsifier: 0.5 part by weight of alkylaryl polyglycol ether
After the desired period of time, the activity in % is determined.

[8] = tested on: greenhouse red spider mite (Tetranychus urticae); experiment: Tetranychus Test, OP-resistant/dip treatment (Example J); type: in vivo; conditions: 4 ppm active compound, bean plants dipped, OP-resistant
[9] = tested on: peach aphid (Myzus persicae); experiment: Myzus Test (Example F); type: in vivo; conditions: 4 ppm active compound, cabbage leaves dipped
From the text: as §1

## CCOC(=O)OC1=C(c2cc(C)ccc2C)C(=O)N[C@]12CC[C@@H](OC)CC2 [Example I-c-1]
[1]
  Kill rate in % after 6^d: 90%
[2]; 20 ppm active compound
  Kill rate in % after 7^d: 80%
[2]; 100 ppm active compound
  Kill rate in % after 7^d: 100%

## CO[C@H]1CC[C@]2(CC1)NC(=O)C(c1cc(C)ccc1C)=C2O [Example I-a-1]
[3]
  Kill rate in % after 7^d: 50%
[4]
  Kill rate in % after 7^d: 100%

## CCOC(=O)OC1=C(c2cc(C)ccc2Br)C(=O)N[C@]12CC[C@@H](OC)CC2 [Example I-c-2]
[5]
  Kill rate in % after 6^d: 100%
[6]
  Kill rate in % after 6^d: 100%

## CCOC1CCC2(CC1)NC(=O)C(c1cc(C)ccc1Cl)=C2OC(=O)C(C)C (stereo not drawn)
[7]
  Kill rate in % after 4^d: 70%

## CCOC(=O)OC1=C(c2cc(Br)ccc2C)C(=O)N[C@]12CC[C@@H](OC)CC2 [Example I-c-4]
[8]
  Kill rate in % after 7^d: 40%
[3]
  Kill rate in % after 7^d: 20%
[9]
  Kill rate in % after 6^d: 50%
[4]
  Kill rate in % after 7^d: 25%
